Measurements reported in patent publication US20090018111A1, “Novel Antimicrobial Medicament” (priority 2004, published 2009).
Read-outs that look alike come from different tables or passages of the source.

Assays:
Test in all cases: Sensitivity test (agar dilution)
B. subtilis ATCC6633 = assay type: cell-based, Bacillus subtilis; details: Bacillus subtilis, B. subtilis ATCC6633
Description: (§1) The antibacterial activities were tested against various 18 bacteria (27 standard strains) which are representative bacteria caused clinically infectious disease (Staphylococcus aureus 3 strains, Staphylococcus epidermidis 1 strain, Micrococcus luteus 1 strain, Streptococcus pyogenes 1 strain, Enterococcus faecalis 1 strain, Enterococcus faecium 1 strain, Bacillus subtilis 1 strain, Escherichia coli 3 strains, Klebsiella pneumoniae 1 strain, Proteus mirabilis 1 strain, Proteus vulgaris 2 strains, Pseudomonas aeruginosa 3 strains, Serratia marcescens 2 strains, Enterobacter aerogenes 1 strain, Stenotrophomonas maltophilia 1 strain, Enterobacter cloacae 1 strain, Citrobacter freundii 1 strain, Moraxella catarrhalis 2 strains).
(§2) According to the standard method of Japan Chemotherapeutic Society (Chemotherapy, vol. […], p 76-79 (1981)) the test was carried out using the agar dilution method. After dissolving test samples in distilled water, agar medium containing the test samples was prepared in such a manner that the final concentration became twice serial dilution by pouring serially diluted combination drug solution or a single drug solution into agar medium. As agar medium was used Mueller Hinton Agar medium (MHA). Then, each strain was cultivated over night at 37° C. in an incubator and suspended in buffered saline solution with gelatin (BSG) in the concentration of about 10^6 CFU/ml. The suspension (about 5 μl) containing test strains was inoculated to the medium containing the test samples by Micro Planter.
(§3) When the sample is subjected to sensitivity test, this mixed solution was diluted by twice serial dilution method.
(§4) Furthermore, when the drug is solely used, each test sample was used as it is, and diluted by twice serial dilution method from the maximum concentration to the minimum concentration.
(§5) FIC index based on MIC value was calculated. […] Namely, when FIC index calculated by the following formula is equal or less than 1, the enhanced effect of the combination drug in said ratio is considered as positive. When FIC index is over 1, the enhanced effect of the combination drug in said ratio is considered as negative.
(§6) Formula of FIC index: FIC index=(MIC of Drug A in combination/MIC of Drug A alone)+(MIC of Drug B in combination/MIC of Drug B alone) N.C. in tables means being not calculated.

[1] = tested on: S. aureus MS94088 (hetero-MRSA); assay type: cell-based, Staphylococcus aureus; details: Staphylococcus aureus, MRSA, S. aureus MS94088 (hetero-MRSA)
Description: as §1, §2, §3, §4, §5, §6

S. aureus 209P = assay type: cell-based, Staphylococcus aureus; details: Staphylococcus aureus, 209P, S. aureus 209P
Description: as §1, §2, §3, §4, §5, §6

[2] = tested on: S. aureus SP-7928 (homo-MRSA); assay type: cell-based, Staphylococcus aureus; details: Staphylococcus aureus, MRSA, S. aureus SP-7928 (homo-MRSA)
Description: as §1, §2, §3, §4, §5, §6

S. maltophilia IID1275 = assay type: cell-based, Stenotrophomonas maltophilia; details: Stenotrophomonas maltophilia, S. maltophilia IID1275
Description: as §1, §2, §3, §4, §5, §6

E. faecium ATCC19434 = assay type: cell-based, Enterococcus faecium; details: Enterococcus faecium, E. faecium ATCC19434
Description: as §1, §2, §3, §4, §5, §6

M. luteus ATCC9341 = assay type: cell-based, Micrococcus luteus; details: Micrococcus luteus, M. luteus ATCC9341
Description: as §1, §2, §3, §4, §5, §6

E. aerogenes ATCC13048 = assay type: cell-based, Enterobacter aerogenes; details: Klebsiella aerogenes, E. aerogenes ATCC13048
Description: as §1, §2, §3, §4, §5, §6

E. coli NIHJ JC-2 = assay type: cell-based, Escherichia coli; details: Escherichia coli, E. coli NIHJ JC-2
Description: as §1, §2, §3, §4, §5, §6

K. pneumoniae ATCC10031 = assay type: cell-based, Klebsiella pneumoniae; details: Klebsiella pneumoniae, K. pneumoniae ATCC10031
Description: as §1, §2, §3, §4, §5, §6

P. vurgalis OX-19 = assay type: cell-based, Proteus vulgaris; details: Proteus vulgaris, P. vurgalis OX-19
Description: as §1, §2, §3, §4, §5, §6

P. vulgaris GN7919 = assay type: cell-based, Proteus vulgaris; details: Proteus vulgaris, P. vulgaris GN7919
Description: as §1, §2, §3, §4, §5, §6

Str. pyogenes Cook = assay type: cell-based, Streptococcus pyogenes; details: Streptococcus pyogenes, Str. pyogenes Cook
Description: as §1, §2, §3, §4, §5, §6

[3] = ATCC6633, drug alone, read-out: MIC alone
[4] = Concomitant (AZT:SM = 1:1), read-out: MIC concomitant
[5] = drug alone, read-out: MIC alone
[6] = IID1275, drug alone, read-out: MIC alone
[7] = ATCC19434, drug alone, read-out: MIC alone
[8] = ATCC9341, drug alone, read-out: MIC alone
[9] = ATCC13048, drug alone, read-out: MIC alone
[10] = NIHJJC2, drug alone, read-out: MIC alone
[11] = ATCC10031, drug alone, read-out: MIC alone
[12] = OX19, drug alone, read-out: MIC alone
[13] = GN7919, drug alone, read-out: MIC alone
[14] = Concomitant (BIPM:SM = 1:1), read-out: MIC concomitant
[15] = Concomitant (CAZ:SM = 1:1), read-out: MIC concomitant

## C[C@H]1[C@H](NC(=O)/C(=N\OC(C)(C)C(=O)O)c2csc(N)n2)C(=O)N1S(=O)(=O)O [AZT, aztreonam]
B. subtilis ATCC6633; ATCC6633, Concomitant (AZT:SM = 1:1), read-out: MIC concomitant
  MIC: ≤ 0.002 µg/mL
B. subtilis ATCC6633; [3]
  MIC: > 32 µg/mL
[1]; [4]
  MIC: 0.25 µg/mL
[1]; [5]
  MIC: > 32 µg/mL
S. aureus 209P; [4]
  MIC: 0.008 µg/mL
S. aureus 209P; [5]
  MIC: > 32 µg/mL
[2]; [4]
  MIC: 2 µg/mL
[2]; [5]
  MIC: > 32 µg/mL
S. maltophilia IID1275; IID1275, Concomitant (AZT:SM = 1:1), read-out: MIC concomitant
  MIC: > 32 µg/mL
S. maltophilia IID1275; [6]
  MIC: > 32 µg/mL
E. faecium ATCC19434; ATCC19434, Concomitant (AZT:SM = 1:1), read-out: MIC concomitant
  MIC: 0.125 µg/mL
E. faecium ATCC19434; [7]
  MIC: > 32 µg/mL
M. luteus ATCC9341; ATCC9341, Concomitant (AZT:SM = 1:1), read-out: MIC concomitant
  MIC: ≤ 0.002 µg/mL
M. luteus ATCC9341; [8]
  MIC: 16 µg/mL
E. aerogenes ATCC13048; ATCC13048, Concomitant (AZT:SM = 1:1), read-out: MIC concomitant
  MIC: 8 µg/mL
E. aerogenes ATCC13048; [9]
  MIC: 0.063 µg/mL
E. coli NIHJ JC-2; NIHJJC2, Concomitant (AZT:SM = 1:1), read-out: MIC concomitant
  MIC: 0.063 µg/mL
E. coli NIHJ JC-2; [10]
  MIC: 0.063 µg/mL
K. pneumoniae ATCC10031; ATCC10031, Concomitant (AZT:SM = 1:1), read-out: MIC concomitant
  MIC: 0.004 µg/mL
K. pneumoniae ATCC10031; [11]
  MIC: 0.004 µg/mL
P. vurgalis OX-19; OX19, Concomitant (AZT:SM = 1:1), read-out: MIC concomitant
  MIC: 0.004 µg/mL
P. vurgalis OX-19; [12]
  MIC: 0.004 µg/mL
P. vulgaris GN7919; GN7919, Concomitant (AZT:SM = 1:1), read-out: MIC concomitant
  MIC: 0.25 µg/mL
P. vulgaris GN7919; [13]
  MIC: 0.125 µg/mL
Str. pyogenes Cook; [4]
  MIC: 0.004 µg/mL
Str. pyogenes Cook; [5]
  MIC: 16 µg/mL

## C[C@@H](O)[C@H]1C(=O)N2C(C(=O)[O-])=C(SC3Cn4cnc[n+]4C3)[C@H](C)[C@H]12 (stereo partly drawn) [BIPM, biapenem]
B. subtilis ATCC6633; ATCC6633, Concomitant (BIPM:SM = 1:1), read-out: MIC concomitant
  MIC: ≤ 0.002 µg/mL
B. subtilis ATCC6633; [3]
  MIC: 0.031 µg/mL
[1]; [14]
  MIC: 0.25 µg/mL
[1]; [5]
  MIC: 4 µg/mL
S. aureus 209P; [14]
  MIC: 0.008 µg/mL
S. aureus 209P; [5]
  MIC: 0.031 µg/mL
[2]; [14]
  MIC: 2 µg/mL
[2]; [5]
  MIC: > 32 µg/mL
S. maltophilia IID1275; IID1275, Concomitant (BIPM:SM = 1:1), read-out: MIC concomitant
  MIC: > 32 µg/mL
S. maltophilia IID1275; [6]
  MIC: > 32 µg/mL
E. faecium ATCC19434; ATCC19434, Concomitant (BIPM:SM = 1:1), read-out: MIC concomitant
  MIC: 0.25 µg/mL
E. faecium ATCC19434; [7]
  MIC: 16 µg/mL
M. luteus ATCC9341; ATCC9341, Concomitant (BIPM:SM = 1:1), read-out: MIC concomitant
  MIC: 0.004 µg/mL
M. luteus ATCC9341; [8]
  MIC: 0.125 µg/mL
E. aerogenes ATCC13048; ATCC13048, Concomitant (BIPM:SM = 1:1), read-out: MIC concomitant
  MIC: 0.063 µg/mL
E. aerogenes ATCC13048; [9]
  MIC: 0.125 µg/mL
E. coli NIHJ JC-2; NIHJJC2, Concomitant (BIPM:SM = 1:1), read-out: MIC concomitant
  MIC: 0.031 µg/mL
E. coli NIHJ JC-2; [10]
  MIC: 0.031 µg/mL
K. pneumoniae ATCC10031; ATCC10031, Concomitant (BIPM:SM = 1:1), read-out: MIC concomitant
  MIC: 0.016 µg/mL
K. pneumoniae ATCC10031; [11]
  MIC: 0.031 µg/mL
P. vurgalis OX-19; OX19, Concomitant (BIPM:SM = 1:1), read-out: MIC concomitant
  MIC: 0.031 µg/mL
P. vurgalis OX-19; [12]
  MIC: 0.25 µg/mL
P. vulgaris GN7919; GN7919, Concomitant (BIPM:SM = 1:1), read-out: MIC concomitant
  MIC: 0.25 µg/mL
P. vulgaris GN7919; [13]
  MIC: 0.5 µg/mL
Str. pyogenes Cook; [14]
  MIC: 0.004 µg/mL
Str. pyogenes Cook; [5]
  MIC: 0.008 µg/mL

## CC(C)(O/N=C(\C(=O)N[C@@H]1C(=O)N2C(C(=O)[O-])=C(C[n+]3ccccc3)CS[C@H]12)c1csc(N)n1)C(=O)O [CAZ, ceftazidime]
B. subtilis ATCC6633; ATCC6633, Concomitant (CAZ:SM = 1:1), read-out: MIC concomitant
  MIC: ≤ 0.002 µg/mL
B. subtilis ATCC6633; [3]
  MIC: 2 µg/mL
[1]; [15]
  MIC: 0.25 µg/mL
[1]; [5]
  MIC: > 32 µg/mL
S. aureus 209P; [15]
  MIC: 0.004 µg/mL
S. aureus 209P; [5]
  MIC: 8 µg/mL
[2]; [15]
  MIC: 1 µg/mL
[2]; [5]
  MIC: > 32 µg/mL
S. maltophilia IID1275; IID1275, Concomitant (CAZ:SM = 1:1), read-out: MIC concomitant
  MIC: > 32 µg/mL
S. maltophilia IID1275; [6]
  MIC: > 32 µg/mL
E. faecium ATCC19434; ATCC19434, Concomitant (CAZ:SM = 1:1), read-out: MIC concomitant
  MIC: 0.125 µg/mL
E. faecium ATCC19434; [7]
  MIC: > 32 µg/mL
M. luteus ATCC9341; ATCC9341, Concomitant (CAZ:SM = 1:1), read-out: MIC concomitant
  MIC: ≤ 0.002 µg/mL
M. luteus ATCC9341; [8]
  MIC: 1 µg/mL
E. aerogenes ATCC13048; ATCC13048, Concomitant (CAZ:SM = 1:1), read-out: MIC concomitant
  MIC: 8 µg/mL
E. aerogenes ATCC13048; [9]
  MIC: 0.5 µg/mL
E. coli NIHJ JC-2; NIHJJC2, Concomitant (CAZ:SM = 1:1), read-out: MIC concomitant
  MIC: 0.063 µg/mL
E. coli NIHJ JC-2; [10]
  MIC: 0.25 µg/mL
K. pneumoniae ATCC10031; ATCC10031, Concomitant (CAZ:SM = 1:1), read-out: MIC concomitant
  MIC: 0.008 µg/mL
K. pneumoniae ATCC10031; [11]
  MIC: 0.031 µg/mL
P. vurgalis OX-19; OX19, Concomitant (CAZ:SM = 1:1), read-out: MIC concomitant
  MIC: 0.008 µg/mL
P. vurgalis OX-19; [12]
  MIC: 0.031 µg/mL
P. vulgaris GN7919; GN7919, Concomitant (CAZ:SM = 1:1), read-out: MIC concomitant
  MIC: 0.5 µg/mL
P. vulgaris GN7919; [13]
  MIC: 0.5 µg/mL
Str. pyogenes Cook; [15]
  MIC: 0.004 µg/mL
Str. pyogenes Cook; [5]
  MIC: 0.125 µg/mL
